{"source": "patent US7977403B2", "about": "“Antiseptic containing silicone elastomers” (Bayer Innovation GmbH, priority 2006, dated 2011)", "tested_on": "L 929 mouse fibroblast cells", "experiment": "Biocompatibility (cytotoxicity) test of material extract, DIN ISO 10993-5", "type": "cell-based", "conditions": "final concentration 1%, 48 h", "method": "Biocompatibility Tests as Specified in DIN ISO 10993-5 (1999), EN 30993-5 (1994) The catheter shafts from Example 13 were for this purpose extracted non-sterile at 37° C. and 5% pCO2 in extraction medium (DMEM including antibiotics without FCS) for 24 h. The surface-volume ratio was 1 cm^2/ml of extraction medium. After completion of the extraction, the extraction medium was sterilized by filtration and supplemented with sterile FCS (final concentration: 10% FCS in the extraction medium). The FCS-supplemented extraction medium was put sterile on precultured L 929 mouse fibroblast cells and incubated at 37° C., 5% pCO2 for 48 h. The extract was subjected to quadruplicate parallel testing. Triton X 100 was added to the L929 cells used as toxic positive control (final concentration 1%). Cell culture medium served as non-toxic negative control. After the 48-hour incubation, the release of lactate dehydrogenase (LDH) in the cell culture supernatant was measured by a photometric method. The cells were then subjected to alkaline lysis and the protein content was measured by the Bradford method. The cells were fixed and stained with methylene blue to determine the cell count. After acidic extraction of the methylene blue, the dye content was ascertained by photometry and the extinction was compared with a standard curve in order to determine the cell count on the basis of the dye concentration. Results are shown at FIG. 12.", "data": [{"substance": "Triton X 100", "values": [{"measurement": "Protein content relative to negative control", "setting": "Bradford method", "result": "6.8 % of the negative control value"}, {"measurement": "Specific LDH activity increase compared with the negative control", "setting": "cell culture supernatant", "result": "more than 31 fold"}, {"measurement": "Cell count relative to negative control", "setting": "methylene blue", "result": "0.5 % of the negative control value"}]}]}
